These results are taken from publication PMC4618480.

Series [1] can be described thus: on-resin RCM stapling (Rink amide MBHA), 16 mol% Ru catalyst 2 (Grubbs II), then TFA/TIS/H2O cleavage. The conditions noted are these: the molecule shown is the open-chain precursor, DCE, 40.0 °C.
Series [2] can be described thus: on-resin RCM stapling (Rink amide MBHA), 16 mol% Z-selective Ru catalyst 6 (Mes), then TFA/TIS/H2O cleavage. The settings on record: the molecule shown is the open-chain precursor, 33-membered ring, DCE, 40.0 °C.
Series [3] in a line: on-resin RCM stapling (Rink amide MBHA), 16 mol% Z-selective Ru catalyst 7 (Dipp), then TFA/TIS/H2O cleavage. The conditions noted are these: the molecule shown is the open-chain precursor, DCE, 40.0 °C.
Series [4] can be described thus: on-resin RCM stapling (Rink amide MBHA), 16 mol% Ru catalyst 3 (Hoveyda-Grubbs II), then TFA/TIS/H2O cleavage. The conditions noted are these: the molecule shown is the open-chain precursor, DCE, 40.0 °C.
Series [5] can be described thus: on-resin RCM stapling (Rink amide MBHA), 16 mol% Ru catalyst 4 (nitro-Hoveyda/Grela), then TFA/TIS/H2O cleavage. The conditions noted are these: the molecule shown is the open-chain precursor, DCE, 40.0 °C.
A short description of series [6]: on-resin RCM stapling (Rink amide MBHA), 16 mol% Ru catalyst 5 (o-tolyl NHC Hoveyda type), then TFA/TIS/H2O cleavage. The settings on record: the molecule shown is the open-chain precursor, DCE, 40.0 °C.

In the case of “Fmoc-Val-Asn-R8-Lys-Lys-Ile-Leu-Gly-Lys-S5-Ile-Lys-Val-Val-Lys-NH-resin”, the ring closure, conversion by HPLC in series [1] (33-membered ring) was 94%; in series [2], 70%; in series [3] (33-membered ring), 55%; in series [4] (33-membered ring) it was 80%; in series [5] (33-membered ring), 85%; in series [6] (33-membered ring), 60%.

“Fmoc-Ile-Thr-Phe-S5-Asp-Leu-Leu-S5-Tyr-Tyr-Gly-Pro-NH-resin”: the ring closure, conversion by HPLC in series [1] (21-membered ring) was determined as 90%; in series [3] (21-membered ring), 75%; in series [4] (21-membered ring) it was 81%; in series [5] (21-membered ring), 80%; in series [6] (21-membered ring), 70%.
